# Experimental data from paper PMC6531345 (Bioorganic & medicinal chemistry letters, 2019).
# Columns and labels:
# [1] = tested on: human HSP60/10; conditions: in vitro; cited from earlier work
# [2] = tested on: E. coli GroEL/ES; conditions: high-throughput screen; cited from earlier work
# [3] = tested on: ESKAPE pathogens; conditions: panel of Gram-positive and Gram-negative bacteria; cited from earlier work
# [4] = target: T1, M. tuberculosis PtpB (Mycobacterium tuberculosis, UniProt I6WXK4); conditions: cited from earlier work
# [5] = tested on: native MDH; conditions: counter-screen; cited from earlier work
# [6] = tested on: native Rho; conditions: counter-screen; cited from earlier work
# [7] = target: T1, M. tuberculosis PtpB; type: biochemical; conditions: pNPP substrate, 6–8 replicates
# T1 sequence (I6WXK4 whole entry, looked up): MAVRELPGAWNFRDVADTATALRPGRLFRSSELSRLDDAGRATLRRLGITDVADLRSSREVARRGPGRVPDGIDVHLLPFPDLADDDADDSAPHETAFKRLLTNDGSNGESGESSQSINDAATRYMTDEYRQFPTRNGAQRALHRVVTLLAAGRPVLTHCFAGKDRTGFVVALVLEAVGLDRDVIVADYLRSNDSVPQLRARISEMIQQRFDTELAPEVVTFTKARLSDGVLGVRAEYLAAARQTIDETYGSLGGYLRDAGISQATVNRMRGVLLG
smiles,measurement,setting,value
Cc1ccc(C(=O)Nc2ccc(S(=O)(=O)O)c3cc(S(=O)(=O)O)cc(S(=O)(=O)O)c23)cc1NC(=O)c1cccc(NC(=O)Nc2cccc(C(=O)Nc3cc(C(=O)Nc4ccc(S(=O)(=O)O)c5cc(S(=O)(=O)O)cc(S(=O)(=O)O)c45)ccc3C)c2)c1 [suramin],inhibition of human HSP60/10,[1],can inhibit human HSP60/10 in vitro
Cc1ccc(S(=O)(=O)Nc2ccc(-c3nc4ccc(NS(=O)(=O)c5ccc(C)cc5)cc4[nH]3)cc2)cc1 [compound 1],GroEL/ES inhibition,[2],one of our most potent GroEL/ES inhibitors
same,antibacterial efficacy,[3],lacked any appreciable antibacterial efficacy
"O=C(O)C(=O)N(Cc1cccc(Cl)c1)Cc1ccc(S(=O)(=O)NCCC(c2ccccc2)c2ccccc2)s1 [OMTS, (oxalylamino-methylene)-thiophene sulfonamide]",inhibition of M. tuberculosis PtpB,[4],potent and selective inhibitor
O=[N+]([O-])c1cc(S(=O)(=O)Nc2ccc(-c3nc4cc(NS(=O)(=O)c5ccc(Cl)s5)ccc4o3)cc2)ccc1Cl [28R],inhibition of native MDH,[5],only weakly
same,inhibition of native Rho,[6],only weakly
O=S(=O)(Nc1ccc2oc(-c3ccccc3)nc2c1)c1cccc(O)c1 [L51-m],dose-response behaviour on PtpB phosphatase activity,[7],bi-phasic response where compounds activate then inhibit phosphatase activity
